Earlier results in US4496540A, “Therapeutic compounds” (Biomeasure, Inc., priority 1982, dated 1985).

Test system: enkephalinase

inhibition of enkephalinase (known inhibitors, Llorens et al. (1981)): inhibited
Compound: O=C(O)CNC(=O)C(CS)Cc1ccccc1 (racemic) [Thiorphan, (DL-3-mercapto-2-benzylpropanoyl) glycine]
protection of the enkephalins from the action of enkephalinase in vitro (in vitro, Roques et al. (1980)): protects the enkephalins from the action of enkephalinase in vitro in nanomolar concentration
